Results reported in patent publication US20240024262A1, “USE OF VALERIC ACID IN PREPARATION OF DRUG FOR PREVENTING AND TREATING DIABETES” (Harbin Medical University, priority 2022, published 2024).

Assays:
[1] = tested on: mouse primary islet β cells; experiment: Insulin secretion ability test; assay type: cell-based; conditions: for secretion levels of the insulin stimulated under a high glucose environment: high sugar (20 mmol/L), after PA intervention
Excerpt: (§1) Through an insulin secretion ability test, the levels of the insulin produced in each group under concentrations of no sugar, low sugar (2.8 mmol/L) and high sugar (20 mmol/L) are compared.

Beta-TC-6 cell line [2] = experiment: Insulin secretion ability test; assay type: cell-based, mouse; conditions: for secretion levels of the insulin stimulated under a high glucose environment: high sugar (20 mmol/L), after PA intervention
Excerpt: as §1

[3] = tested on: mouse primary islet β cells; experiment: TUNEL cell apoptosis detection test; assay type: cell-based; conditions: PA intervention, then SV intervention
Excerpt: (§2) During the cell testing phase of this example, a cell line of mouse insulinoma islet β cells (Beta-TC-6) and mouse primary islet β cells were purchased from Wuhan Prosser Life Technology Co., Ltd for carrying out relevant experimental researches.
(§3) A cell Counting Kit 8 (CCK-8) is a convenient and reliable method to detect the cell activity. In this example, a BeyoClick™ EdU-488 kit is further used to detect the proliferation level of the cells. EdU (5-ethynyl-2′-deoxyuridine) is a thymidine analog that may replace T to infiltrate replicated DNA molecules in the process of cell proliferation. The replication activity of DNA was detected by specific reaction of EdU and an Apollo® Fluor 488 fluorescent dye, an EdU label was correctly detected, and then proliferation of cells was reflected. In this example, expression of Ki-67 in the cells was detected by immunofluorescence (immunocytochemistry), and apoptosis was analyzed by referring to a one-step TUNEL cell apoptosis detection kit (red fluorescence). Meanwhile, this example used a flow cytometry technology to complete detection of a cell cycle and apoptosis.

Beta-TC-6 cells [4] = experiment: Flow cytometry apoptosis analysis; assay type: cell-based, mouse; conditions: Beta-TC-6, flow cytometry; PA intervention, then SV intervention
Excerpt: as §3
Sodium valerate SV can weaken PA induced apoptosis to a certain extent (FIG. 17).

Beta-TC-6 cells [5] = experiment: EdU-488 cell proliferation test; assay type: cell-based, mouse; conditions: PA alone, or SV 1 mmol/L after PA compared with PA group
Excerpt: as §2, §3
(§4) The following drugs are taken as comparative examples: • 1. […]

[6] = tested on: mouse primary islet β cells; experiment: EdU-488 cell proliferation test; assay type: cell-based; conditions: PA alone, or SV 1 mmol/L after PA compared with PA group
Excerpt: as §2, §3, §4

Beta-TC-6 cell line [7] = experiment: TUNEL cell apoptosis detection test; assay type: cell-based, mouse; conditions: PA intervention, then SV intervention
Excerpt: as §2, §3

[8] = tested on: Leptin receptor gene deficient db/db mice; experiment: Type 2 diabetes model db/db mice: food intake, body weight, blood glucose-related indexes; assay type: in vivo; conditions: comparison among groups / vs PBS control group
Procedure: The following drugs are taken as comparative examples: • 1. Comparative example where an existing drug serves as a positive control • (1) High-fat fed C57BL6/J mice • Sodium butyrate gavage intervention group: 75.0 mg/kg • (2) Type 2 diabetes model db/db mice • Sodium butyrate gavage intervention group: 75.0 mg/kg • Harmine gavage intervention group: 10.0 mg/kg • Metformin gavage intervention group: 100.0 mg/kg • (3) Cell line of mouse insulinoma islet β cells (Beta-TC-6) • Sodium butyrate intervention group: 1.0 mmol/L • Harmine intervention group: 10.0 μmmol/L • (4) Mouse islet β primary cell • Sodium butyrate intervention group: 1.0 mmol/L • Harmine intervention group: 10.0 μmmol/L • 2. A control test is taken as a comparative example • (1) High-fat fed C57BL6/J mice • Ordinary feed feeding group, and high-fat feed PBS gavage group • (2) Type 2 diabetes model db/db mice • Control feeding group and PBS gavage group • (3) Cell line of mouse insulinoma islet β cells (Beta-TC-6) • Blank control group, and palmitic acid (PA) intervention negative control group • (4) Mouse islet β primary cell • Blank control group, and PA intervention negative control group • Results are as follows:
(II) In the animal test, the therapeutic effect of the valeric acid on diabetes is observed by using Leptin receptor gene deficient db/db mice (purchased from Nanjing Junke Biotechnology Co., Ltd.) as test subjects.

Row | SMILES | secretion levels of the insulin stimulated under a high glucose environment [1] | secretion levels of the insulin stimulated under a high glucose environment (Beta-TC-6 cell line [2]) | proportion of apoptotic cells (TUNEL) [3] | proportion of apoptotic cells, Q2 quadrant (late apoptosis) and Q3 quadrant (early apoptosis) (Beta-TC-6 cells [4]) | proportion of EdU (+) cells (Beta-TC-6 cells [5]) | secretion ability of the insulin ([1]; PA intervention) | proportion of EdU (+) cells [6] | secretion ability of the insulin (Beta-TC-6 cell line [2]; PA intervention) | proportion of apoptotic cells (TUNEL) (Beta-TC-6 cell line [7]) | insulin secretion [8] | secretion levels of the insulin stimulated under a high glucose environment ([1]; listed as SV) | secretion levels of the insulin stimulated under a high glucose environment (Beta-TC-6 cell line [2]; listed as SV)
1 | COc1ccc2c(c1)[nH]c1c(C)nccc12 [Harmine] | significantly increased | significantly increased | – | – | – | – | – | – | – | – | – | –
2 | CCCCCCCCCCCCCCCC(=O)O [PA, palmitic acid, reference compound] | – | – | increased significantly | increased significantly | decreased significantly | decreased significantly | decreased significantly | decreased significantly | increased significantly | – | – | –
3 | CCCC(=O)[O-].[Na+] [Sb, sodium butyrate] | significantly increased | significantly increased | – | – | – | – | – | – | – | – | – | –
4 | CN(C)C(=N)N=C(N)N [metformin, reference compound] | – | – | – | – | – | – | – | – | – | basically no difference | – | –
5 | CCCCC(=O)[O-].[Na+] [sodium valerate] | more significant | more significant | slightly decreased | decreased significantly | increased significantly | – | increased significantly | – | slightly decreased | – | significantly increased | significantly increased
